The values below come from ChEMBL document CHEMBL1141016, “Orally bioavailable prodrugs of a BCS class 2 molecule, an inhibitor of HIV-1 reverse transcriptase” (Bioorg Med Chem Lett, 2008).

SMILES strings stand for the structures. ≈ marks a conversion by molar mass, not a printed value.

As a reminder, the Tmax is the time at which the peak concentration occurs. As usually defined, the half-life is the time in which the quantity being followed falls by half. For orientation: Cmax means the maximum level reached in the sampled fluid or tissue. The term pKa denotes the pH at which an ionisable group is half protonated. A word on the solubility: it is the concentration that dissolves in the medium under given conditions.

In data set [1] the test system is Rattus norvegicus. Description: Tmax in Hanover Wistar rat assessed as 5-(6-chloro-2-fluoro-3-((5-methyl-6-oxo-1,6-dihydropyridazin-3-yl)methyl)phenoxy)isophthalonitrile level at 50 mg/kg, po. It counts as ADME, organism-based. Also on record: dose 50 mg/kg, route oral. Particulars: in vivo.
The subject of data set [2] is Rattus norvegicus. Description: AUC (0 to 24 hrs) in Hanover Wistar rat assessed as 5-(6-chloro-2-fluoro-3-((5-methyl-6-oxo-1,6-dihydropyridazin-3-yl)methyl)phenoxy)isophthalonitrile level at 50 mg/kg, po. Also on record: unit not given here. Particulars: in vivo.
Data set [3] in a line: Aqueous stability assessed as half life at pH 6.5. The data set is classed as physicochemical.
Data set [4] in a line: Aqueous stability assessed as half life at pH 2. The data set is classed as physicochemical.
Data set [5] relates to Rattus norvegicus. Description: Cmax in Hanover Wistar rat assessed as 5-(6-chloro-2-fluoro-3-((5-methyl-6-oxo-1,6-dihydropyridazin-3-yl)methyl)phenoxy)isophthalonitrile level at 50 mg/kg, po. It counts as ADME, organism-based. The arrangement: dose 50 mg/kg, route oral. The note with it: in vivo.
Data set [6] in a line: Permeability across human Caco-2 cells. The data set is classed as ADME, cell-based. Particulars: read-out: permeability. A general note: Caco-2 monolayers are a common model of the intestinal barrier.
Data set [7] can be described thus: Cmax in Hanover Wistar rat at 50 mg/kg, po. It counts as ADME, organism-based. The arrangement: dose 50 mg/kg, route oral. Particulars: in vivo.
Data set [8] in a line: Tmax in Hanover Wistar rat at 50 mg/kg, po. It counts as ADME, organism-based. Also on record: dose 50 mg/kg, route oral. The note with it: in vivo.
A short description of data set [9]: Dissociation constant, pKa of the compound. The data set is classed as physicochemical.
Data set [10] in a line: Cmax in Hanover Wistar rat at 5 mg/kg, po. The data set is classed as ADME, organism-based. Also on record: dose 5 mg/kg, route oral. The note with it: in vivo.
Data set [11] can be described thus: Aqueous solubility at pH 6.5. The data set is classed as physicochemical.
The nature of data set [12]: Tmax in Hanover Wistar rat at 5 mg/kg, po. It counts as ADME, organism-based. Also on record: dose 5 mg/kg, route oral. The note with it: in vivo.
The subject of data set [13] is Rattus norvegicus. Description: AUC (0 to 24 hrs) in Hanover Wistar rat at 50 mg/kg, po. The note with it: in vivo.
Data set [14] has as its system Rattus norvegicus. Description: AUC (0 to 24 hrs) in Hanover Wistar rat at 5 mg/kg, po. The note with it: in vivo.

On to `Cc1cc(Cc2ccc(Cl)c(Oc3cc(C#N)cc(C#N)c3)c2F)nn(COC(=O)OCCN2CCOCC2)c1=O.Cl`, for which the Tmax with Rattus norvegicus [1] is 3.3 h. Moreover, the AUC in the data set on Rattus norvegicus [2] was 89. Besides, the half-life in [3] was 3.5 h; in [4], 301 h. In addition, in the data set on Rattus norvegicus [5], the Cmax was determined as 5.6 µM.
For `Cc1cc(Cc2ccc(Cl)c(Oc3cc(C#N)cc(C#N)c3)c2F)nn(COC(=O)CN)c1=O.Cl`, the time to peak (Tmax) in the data set on Rattus norvegicus [1] stood at 4 h. Further, the AUC in the data set on Rattus norvegicus [2] turned out to be 93. Moreover, the results for the half-life in [3] and in [4] were 1 h and 38 h, respectively. Also, in the data set with Rattus norvegicus [5], the maximum concentration (Cmax) was 6.3 µM.
For `Cc1cc(Cc2ccc(Cl)c(Oc3cc(C#N)cc(C#N)c3)c2F)nn(COC(=O)[C@@H](N)C(C)C)c1=O.Cl`, in that order: 4 h, 134, 3.2 h, 1420 h and 9.1 µM.
On to `Cc1cc(Cc2ccc(Cl)c(Oc3cc(C#N)cc(C#N)c3)c2F)nn(COC(=O)c2cccnc2)c1=O.Cl`, for which, in the data set on Rattus norvegicus [1], the Tmax is 4.7 h. The AUC in the data set on Rattus norvegicus [2] turned out to be 101. For the same molecule, the half-life in data set [3] was 4.7 h; in data set [4] it was 10 h. For the same molecule, in the data set with Rattus norvegicus [5], the maximum concentration (Cmax) amounted to 8.8 µM.
On to `Cc1cc(Cc2ccc(Cl)c(Oc3cc(C#N)cc(C#N)c3)c2F)nn(COC(=O)[C@@H]2CCCN2)c1=O.Cl`, for which the time to peak (Tmax) with Rattus norvegicus [1] is 4.7 h. Also, the AUC in the data set with Rattus norvegicus [2] was 108. For the same molecule, the half-life in [3] was less than 0.3 h; in data set [4] it was 17 h. Further, the maximum concentration (Cmax) with Rattus norvegicus [5] turned out to be 7.3 µM.
For `Cc1cc(Cc2ccc(Cl)c(Oc3cc(C#N)cc(C#N)c3)c2F)nn(COC(=O)CCC(=O)O)c1=O`, in that order: 2.7 h, 142, 40 h, 462 h and 13.2 µM.
As to `Cc1cc(Cc2ccc(Cl)c(Oc3cc(C#N)cc(C#N)c3)c2F)nn(COP(=O)([O-])[O-])c1=O.[Na+].[Na+]`, the Tmax in the data set with Rattus norvegicus [1] was 8 h. Besides, the AUC with Rattus norvegicus [2] stood at 178. The half-life in [3] and in [4] was greater than 24 h throughout. In the data set on Rattus norvegicus [5], the Cmax was found to be 12.7 µM.
Turning to `Cc1cc(Cc2ccc(Cl)c(Oc3cc(C#N)cc(C#N)c3)c2F)nn(COC(=O)OCCN(C)C)c1=O.Cl`, in the data set with Rattus norvegicus [1], the time of peak concentration (Tmax) was determined as 2 h. Further, in the data set on Rattus norvegicus [2], the AUC is 108. Moreover, the figures for the half-life in data set [3] and in data set [4] were 0.9 h and 289 h, respectively. For the same molecule, the maximum concentration (Cmax) in the data set with Rattus norvegicus [5] is 7.3 µM.
Take `Cc1cc(Cc2ccc(Cl)c(Oc3cc(C#N)cc(C#N)c3)c2F)n[nH]c1=O`: the Papp in [6] is 19 ×10⁻⁶ cm/s. Also, the peak concentration (Cmax) was 1.5 µM in [7] and 0.96 µM in [10]. The results for the Tmax in data set [8] and in data set [12] were 3.3 h and 3.7 h, respectively. The same molecule gave a pKa in [9] of 10.5. In data set [11], this molecule yielded a solubility of 0.3 µg/mL (≈ 0.76 µM). For the same molecule, the values for the AUC in the data set with Rattus norvegicus [13] and in the data set with Rattus norvegicus [14] were 20.3 uM.hr/ml and 6.8 uM.hr/ml, respectively.
